Data published in ChEMBL document CHEMBL1201862, “PubChem BioAssay data set” (2004).
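These data come from cells grown in 96-well plates and exposed to compound for 48 hours at five concentrations. GI50 = concentration required for 50% inhibition of growth.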 Calls of active or inactive are those of the source. Cut-off read from the data, not from the text of the source: active = GI50 up to about 1.1 µM and inactive = higher.

Assays:
Experiment in all cases: NCI anticancer screen, dose series, 48 h
COLO 205 = tested on: COLO 205
UO-31 = tested on: UO-31
NCI-H460 = tested on: NCI-H460
OVCAR-4 = tested on: OVCAR-4
SK-MEL-2 = tested on: SK-MEL-2
786-0 = tested on: 786-0
LOX IMVI = tested on: LOX IMVI
OVCAR-8 = tested on: OVCAR-8
RXF 393 = tested on: RXF 393
HCC 2998 = tested on: HCC 2998
ACHN = tested on: ACHN
OVCAR-3 = tested on: OVCAR-3
HOP-92 = tested on: HOP-92
HCT-15 = tested on: HCT-15
SK-MEL-5 = tested on: SK-MEL-5
OVCAR-5 = tested on: OVCAR-5
EKVX = tested on: EKVX
HOP-62 = tested on: HOP-62
NCI-H522 = tested on: NCI-H522
TK-10 = tested on: TK-10

Row | SMILES | GI50 (COLO 205) | GI50 (UO-31) | GI50 (NCI-H460) | GI50 (OVCAR-4) | GI50 (SK-MEL-2) | GI50 (786-0) | GI50 (LOX IMVI) | GI50 (OVCAR-8) | GI50 (RXF 393) | GI50 (HCC 2998) | GI50 (ACHN) | GI50 (OVCAR-3) | GI50 (HOP-92) | GI50 (HCT-15) | GI50 (SK-MEL-5) | GI50 (OVCAR-5) | GI50 (EKVX) | GI50 (HOP-62) | GI50 (NCI-H522) | GI50 (TK-10)
1 | Cc1cccc(NC(=S)N/N=C2\C(=O)Nc3ccccc32)c1 | 78.3 µM (inactive) | 63.2 µM (inactive) | 48.3 µM (inactive) | 34.9 µM (inactive) | 70.6 µM (inactive) | 59.4 µM (inactive) | 51.4 µM (inactive) | > 100 µM (inactive) | 30.1 µM (inactive) | > 100 µM (inactive) | 43.1 µM (inactive) | 32.3 µM (inactive) | > 100 µM (inactive) | 73.8 µM | 23.3 µM (inactive) | > 100 µM (inactive) | 31.3 µM (inactive) | 62.7 µM (inactive) | > 100 µM (inactive) | 
2 | CCC(C)C(=O)c1c(O)c(C/C=C(\C)CCC=C(C)C)c(O)c2c(C(O)CC)cc(=O)oc12 (stereo unspecified) | 1.71 µM (inactive) | 2.24 µM (inactive) | 2.3 µM (inactive) | 2.11 µM (inactive) | 1.62 µM (inactive) |  | 2.74 µM (inactive) |  | 1.79 µM (inactive) | 0.358 µM (active) | 2.2 µM (inactive) | 2.69 µM (inactive) | 1.63 µM (inactive) |  | 1.19 µM (inactive) | 5.28 µM (inactive) | 3.6 µM (inactive) | 1.95 µM (inactive) | 0.871 µM (active) | 3.81 µM (inactive)
3 | CC1NC(=O)C2=C1C(N)=NC(=O)C2 (stereo unspecified) | > 100 µM (inactive) | > 100 µM (inactive) | > 100 µM (inactive) | > 100 µM (inactive) | > 100 µM (inactive) | > 100 µM (inactive) | > 100 µM (inactive) | > 100 µM (inactive) | > 100 µM (inactive) | > 100 µM (inactive) | > 100 µM (inactive) | > 100 µM (inactive) | > 100 µM (inactive) | > 100 µM | > 100 µM (inactive) | > 100 µM (inactive) | > 100 µM (inactive) |  | > 100 µM (inactive) | > 100 µM (inactive)
4 | N#Cc1ccccc1C(Cl)(Cl)c1cnccn1 | 46.9 µM (inactive) | 33.3 µM (inactive) | 47.4 µM (inactive) | > 100 µM (inactive) | 67 µM (inactive) | 14.6 µM (inactive) | 24.2 µM (inactive) | 26.3 µM (inactive) | 26.4 µM (inactive) | 32.4 µM (inactive) | 59.6 µM (inactive) |  | 25.4 µM (inactive) |  | 20.4 µM (inactive) | > 100 µM (inactive) | 40 µM (inactive) | 72.4 µM (inactive) | 19.8 µM (inactive) | > 100 µM (inactive)
5 | CC(=O)C1CC(C)=CCC12C(=O)Nc1ccccc12 (stereo unspecified) | > 100 µM (inactive) |  | > 100 µM (inactive) | > 100 µM (inactive) | > 100 µM (inactive) | > 100 µM (inactive) | > 100 µM (inactive) | > 100 µM (inactive) | 13.9 µM (inactive) | > 100 µM (inactive) | > 100 µM (inactive) | > 100 µM (inactive) | > 100 µM (inactive) | > 100 µM | > 100 µM (inactive) | > 100 µM (inactive) | > 100 µM (inactive) | > 100 µM (inactive) | > 100 µM (inactive) | > 100 µM (inactive)
6 | COc1cc(/C=C2/C(=O)NC(Cc3cc(OC)c(OC)c(C)c3OC)C(=O)N2Cc2ccccc2)c(OC)c(C)c1OC (stereo unspecified) | 17.7 µM (inactive) | 26 µM (inactive) | 38.1 µM (inactive) | 44.4 µM (inactive) | 30.2 µM (inactive) | 79.3 µM (inactive) | 70 µM (inactive) | 47.4 µM (inactive) | > 100 µM (inactive) | 55.1 µM (inactive) | 61.7 µM (inactive) | 47.2 µM (inactive) | 17.8 µM (inactive) |  | 43.7 µM (inactive) | 93.8 µM (inactive) | 38.9 µM (inactive) | > 100 µM (inactive) | 18.2 µM (inactive) | 56.5 µM (inactive)
